# Source: ChEMBL document CHEMBL5724914, “Linking interpersonal differences in gut microbiota composition and drug biotransformation activity” (2024)
# Assays:
# [1] = The drug is tested on Z-023 corresponding to metagenome with ENA study accession number: PRJEB37062 and ENA sample accession number: ERS12561822 for biotransformation under anaerobic condition. The drug concentrations were measured over 9 timepoints collected between 0 and 24 hours of incubation by liquid-chromatography-coupled mass spectrometry (LC–MS); conditions: 2 µM
# [2] = The drug is tested on Z-013 corresponding to rabbit gut metagenome with ENA study accession number: PRJEB37062 and ENA sample accession number: ERS12561813 for biotransformation under anaerobic condition. The drug concentrations were measured over 9 timepoints collected between 0 and 24 hours of incubation by liquid-chromatography-coupled mass spectrometry (LC–MS); conditions: 2 µM
# [3] = The drug is tested on Z-010 corresponding to metagenome with ENA study accession number: PRJEB37062 and ENA sample accession number: ERS12561810 for biotransformation under anaerobic condition. The drug concentrations were measured over 9 timepoints collected between 0 and 24 hours of incubation by liquid-chromatography-coupled mass spectrometry (LC–MS); conditions: 2 µM
# [4] = The drug is tested on Z-008 corresponding to metagenome with ENA study accession number: PRJEB37062 and ENA sample accession number: ERS12561808 for biotransformation under anaerobic condition. The drug concentrations were measured over 9 timepoints collected between 0 and 24 hours of incubation by liquid-chromatography-coupled mass spectrometry (LC–MS); conditions: 2 µM
# [5] = The drug is tested on WLS-310 corresponding to human gut metagenome with ENA study accession number: PRJEB37062 and ENA sample accession number: ERS12561785 for biotransformation under anaerobic condition. The drug concentrations were measured over 9 timepoints collected between 0 and 24 hours of incubation by liquid-chromatography-coupled mass spectrometry (LC–MS); conditions: 2 µM
# [6] = The drug is tested on WLS-090 corresponding to human gut metagenome with ENA study accession number: PRJEB37062 and ENA sample accession number: ERS12561753 for biotransformation under anaerobic condition. The drug concentrations were measured over 9 timepoints collected between 0 and 24 hours of incubation by liquid-chromatography-coupled mass spectrometry (LC–MS); conditions: 2 µM
# [7] = The drug is tested on WLS-039 corresponding to human gut metagenome with ENA study accession number: PRJEB37062 and ENA sample accession number: ERS12561746 for biotransformation under anaerobic condition. The drug concentrations were measured over 9 timepoints collected between 0 and 24 hours of incubation by liquid-chromatography-coupled mass spectrometry (LC–MS); conditions: 2 µM
# [8] = The drug is tested on WLS-038 corresponding to human gut metagenome with ENA study accession number: PRJEB37062 and ENA sample accession number: ERS12561745 for biotransformation under anaerobic condition. The drug concentrations were measured over 9 timepoints collected between 0 and 24 hours of incubation by liquid-chromatography-coupled mass spectrometry (LC–MS); conditions: 2 µM
# [9] = The drug is tested on WLS-007 corresponding to human gut metagenome with ENA study accession number: PRJEB37062 and ENA sample accession number: ERS12561742 for biotransformation under anaerobic condition. The drug concentrations were measured over 9 timepoints collected between 0 and 24 hours of incubation by liquid-chromatography-coupled mass spectrometry (LC–MS); conditions: 2 µM
# [10] = human gut metagenome, 24 h, 2 µM
# [11] = human gut metagenome, 24 h, 2 µM; remark: listed apart in the source
# [12] = human gut metagenome, 24 h, 2 µM; remark: listed apart in the source
# [13] = human gut metagenome, 24 h, 2 µM; remark: listed apart in the source
# [14] = human gut metagenome, 24 h, 2 µM; remark: listed apart in the source
# [15] = human gut metagenome, 24 h, 2 µM; remark: listed apart in the source
# [16] = human gut metagenome, 24 h, 2 µM; remark: listed apart in the source
# [17] = human gut metagenome, 24 h, 2 µM; remark: listed apart in the source
# [18] = human gut metagenome, 24 h, 2 µM; remark: listed apart in the source
# [19] = human gut metagenome, 24 h, 2 µM; remark: listed apart in the source
# [20] = human gut metagenome, 24 h, 2 µM; remark: listed apart in the source
# Further: call rule not given here.
Bacterial Biotransformation [1],Bacterial Biotransformation [2],Bacterial Biotransformation [3],Bacterial Biotransformation [4],Bacterial Biotransformation [5],Bacterial Biotransformation [6],Bacterial Biotransformation [7],Bacterial Biotransformation [8],Bacterial Biotransformation [9],Bacterial Biotransformation [10],Bacterial Biotransformation [11],Bacterial Biotransformation [12],Bacterial Biotransformation [13],Bacterial Biotransformation [14],Bacterial Biotransformation [15],Bacterial Biotransformation [16],Bacterial Biotransformation [17],Bacterial Biotransformation [18],Bacterial Biotransformation [19],Bacterial Biotransformation [20],SMILES
Compound metabolized,Compound metabolized,Compound metabolized,Compound metabolized,–,–,–,–,–,–,–,–,–,–,–,–,–,–,–,–,CC(=O)SCC(Cc1ccccc1)C(=O)NCC(=O)OCc1ccccc1 (configuration not stated) [RACECADOTRIL]
–,–,–,–,Compound metabolized,Compound metabolized,Compound metabolized,Compound metabolized,Compound NOT metabolized,Compound NOT metabolized,Compound NOT metabolized,Compound metabolized,Compound NOT metabolized,Compound metabolized,Compound metabolized,Compound metabolized,Compound metabolized,Compound NOT metabolized,Compound NOT metabolized,Compound metabolized,Cc1nc(Nc2ncc(C(=O)Nc3c(C)cccc3Cl)s2)cc(N2CCN(CCO)CC2)n1 [DASATINIB ANHYDROUS]
–,–,–,–,Compound metabolized,Compound metabolized,Compound metabolized,Compound metabolized,Compound metabolized,Compound metabolized,Compound metabolized,Compound metabolized,Compound metabolized,Compound metabolized,Compound metabolized,Compound metabolized,Compound metabolized,Compound metabolized,Compound metabolized,Compound metabolized,CC(=O)Oc1ccc(C(c2ccc(OC(C)=O)cc2)c2ccccn2)cc1 [BISACODYL]
–,Compound NOT metabolized,Compound NOT metabolized,Compound NOT metabolized,Compound metabolized,Compound NOT metabolized,–,–,–,–,Compound NOT metabolized,Compound NOT metabolized,Compound NOT metabolized,Compound NOT metabolized,Compound NOT metabolized,Compound NOT metabolized,Compound NOT metabolized,Compound NOT metabolized,Compound NOT metabolized,Compound metabolized,CN(C/C=C/C#CC(C)(C)C)Cc1cccc2ccccc12 [TERBINAFINE]
–,Compound metabolized,–,Compound NOT metabolized,Compound metabolized,Compound NOT metabolized,Compound NOT metabolized,Compound NOT metabolized,–,Compound NOT metabolized,Compound NOT metabolized,Compound NOT metabolized,Compound NOT metabolized,Compound metabolized,Compound metabolized,Compound NOT metabolized,Compound NOT metabolized,Compound NOT metabolized,Compound NOT metabolized,Compound metabolized,CNNCc1ccc(C(=O)NC(C)C)cc1 [PROCARBAZINE]

# The next lines start with the compound.
SMILES,Bacterial Biotransformation [1],Bacterial Biotransformation [2],Bacterial Biotransformation [3],Bacterial Biotransformation [4],Bacterial Biotransformation [5],Bacterial Biotransformation [6],Bacterial Biotransformation [7],Bacterial Biotransformation [8],Bacterial Biotransformation [9],Bacterial Biotransformation [10],Bacterial Biotransformation [11],Bacterial Biotransformation [12],Bacterial Biotransformation [13],Bacterial Biotransformation [14],Bacterial Biotransformation [15],Bacterial Biotransformation [16],Bacterial Biotransformation [17],Bacterial Biotransformation [18],Bacterial Biotransformation [19],Bacterial Biotransformation [20]
O=C1CCc2ccc(OCCCCN3CCN(c4cccc(Cl)c4Cl)CC3)cc2N1 [ARIPIPRAZOLE],Compound metabolized,Compound metabolized,Compound metabolized,Compound metabolized,–,–,–,–,–,–,–,–,–,–,–,–,–,–,–,–
COc1ccc(/C=C/C(=O)Nc2ccccc2C(=O)O)cc1OC,Compound metabolized,Compound metabolized,Compound metabolized,Compound NOT metabolized,Compound metabolized,Compound NOT metabolized,Compound metabolized,Compound metabolized,–,Compound NOT metabolized,Compound NOT metabolized,Compound NOT metabolized,Compound NOT metabolized,Compound NOT metabolized,Compound NOT metabolized,Compound NOT metabolized,Compound NOT metabolized,Compound NOT metabolized,Compound NOT metabolized,–
CNCC[C@H](Oc1cccc2ccccc12)c1cccs1 [DULOXETINE],–,–,–,–,Compound metabolized,Compound metabolized,Compound NOT metabolized,Compound NOT metabolized,Compound metabolized,Compound NOT metabolized,Compound metabolized,Compound NOT metabolized,Compound NOT metabolized,Compound NOT metabolized,Compound metabolized,Compound NOT metabolized,Compound NOT metabolized,Compound NOT metabolized,Compound NOT metabolized,Compound metabolized
CCCCC(=O)O[C@]1(C(=O)CO)[C@@H](C)C[C@H]2[C@@H]3CCC4=CC(=O)C=C[C@]4(C)[C@@]3(F)[C@@H](O)C[C@@]21C [BETAMETHASONE VALERATE],–,–,–,–,Compound metabolized,Compound metabolized,Compound metabolized,Compound metabolized,Compound metabolized,Compound NOT metabolized,Compound NOT metabolized,Compound metabolized,Compound metabolized,Compound metabolized,Compound metabolized,Compound metabolized,Compound metabolized,Compound metabolized,Compound NOT metabolized,Compound metabolized
